Experiment [1] deals with T1, IDO1 (Homo sapiens (Human), UniProt P14902). Description: IDO1 Cellular Assay in Hela Cells Stimulated with IFNγ. Format: cell-based. Particulars: about 48 hours, read-out: IDO1 HELA Cell Assay, IC50. How it is done:
Hela cells were cultured in complete Hela culture medium (90% EMEM, 10% heat-inactivated fetal bovine serum) and expanded to about 1×10^9 cells. The cells were then collected and frozen down at 10×10^6 cells/vial in 1 mL frozen medium (90% complete Hela culture medium, 10% DMSO)
Compounds to be tested were serially diluted in ten 3-fold steps in DMSO starting from 10 mM DMSO stocks in Echo low volume plate(s). Compound dilutions or DMSO alone were then dispensed from the dilution plate(s) into Greiner black 384-well assay plate(s) (catalog #781086, 50 nL/well) using an Echo 550 acoustic liquid handler (Labcyte).
Frozen Hela cells were thawed and transferred into Hela assay medium (99% complete Hela culture medium, 1% Pen/Strep) with 20 mL medium/vial of cells. The cells were spun down at 250 g in a table top centrifuge for 5 min and suspended in same volume of Hela assay medium. The cells were then counted and adjusted to a density of 2×10^5 cells/ml in Hela assay medium. Sterile L-tryptophan were added to the cells with final concentration of 300 uM L-tryptophan. A small aliquot (2 mL/plate) of Hela cells were set aside and were not treated with IFNγ, to serve as the Max-E control. The rest of Hela cells were added with sterile IFNγ (Cat #285-IF, R & D systems) with a final concentration of 100 ng/mL.
Hela cells with and without IFNγ were dispensed to the respective wells of 384-well assay plates containing the compounds. The plates were incubated for about 48 hours at a 37° C., 5% CO2 incubator. Afterwards, 12 μL of 0.5 M methyl isonipecotate in dimethyl sulfoxide were added into each well and the plates were sealed and incubated at 37° C. without CO2 overnight. The plates were centrifuged for 1 min at 200×g. The resulting fluorescence was measured in a Spectramax plate reader (Molecular Devices) with a 400 nm excitation filter and a 510 nm emission filter.
The fluorescence intensity of each well was corrected for the background observed in wells with non-IFNγ-treated cells and was expressed as a fraction of the intensity observed in wells of IFNγ-treated cells and DMSO only. Potencies were calculated by linear least squares fit to the four parameter logistic IC50 equation.
Target sequence in this assay (P14902 whole entry): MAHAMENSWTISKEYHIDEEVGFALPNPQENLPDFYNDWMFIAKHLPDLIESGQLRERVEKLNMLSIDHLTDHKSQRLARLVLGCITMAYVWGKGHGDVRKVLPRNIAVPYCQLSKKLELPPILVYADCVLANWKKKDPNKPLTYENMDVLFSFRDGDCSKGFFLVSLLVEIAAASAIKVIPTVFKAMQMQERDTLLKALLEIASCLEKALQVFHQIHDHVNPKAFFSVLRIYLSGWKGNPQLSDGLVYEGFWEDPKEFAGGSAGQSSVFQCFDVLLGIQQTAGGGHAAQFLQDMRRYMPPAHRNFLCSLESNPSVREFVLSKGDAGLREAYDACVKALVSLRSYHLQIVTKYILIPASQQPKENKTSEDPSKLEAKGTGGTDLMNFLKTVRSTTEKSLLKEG

The target in experiment [2] is T1, IDO1. Description: IDO1 Enzyme Assay. Type of experiment: biochemical. Particulars: HIS-tagged recombinant IDO1, fluorescence readout. How it is done: Compounds to be tested were serially diluted in ten 3-fold steps in DMSO starting from 10 mM DMSO stocks. Compound dilutions or DMSO alone were then dispensed from the dilution plate into a Greiner black 384-well assay plate (catalog #781086) using an Echo 555 acoustic liquid handler (Labcyte).
HIS-tagged IDO1 protein was recombinantly expressed in Escherichia coli using ZYP5052 autoinduction media supplemented with 500 μM delta aminolevulinic acid for 48 h at 16° C. IDO1 protein was purified using Ni^2+-affinity resin and size exclusion chromatography. Purified protein was then diluted in assay buffer (50 mM Tris pH 7.0, 1% glycerol, 20 μM methylene blue, 0.05% Tween-20, 20 mM sodium ascorbate, 100 units/mL catalase to obtain a final IDO1 concentration of 40 nM. IDO1 solution […] or buffer alone ([…]) were dispensed to wells of the assay plate using a BioRAPTR liquid dispenser (Beckman Coulter). Assay plates containing compound and IDO1 enzyme were incubated at RT for 30 min. Afterwards, 10 μL of 400 μM tryptophan in assay buffer were added to each well of the assay plate using a BioRAPTR liquid dispenser. Plates were incubated at RT for 60 min and reactions were quenched by addition of 10 μL of 0.5 M methyl isonipecotate in dimethyl sulfoxide. Plates were sealed and incubated at 37° C. for 4 h or 50° C. for 2 h. The plates are allowed to cool and then centrifuged for 1 min at 1000×g. The resulting fluoresence was measured in an Envision plate reader (Perkin Elmer) with a 400/25 nm excitation filter and an 510/20 nm emission filter.
Potencies were calculated by linear least squares fit to the four parameter logistic IC50 equation.
Target sequence in this assay (P14902 whole entry, species assumed): as the sequence (P14902 whole entry) above

Turning to `CS(=N)(=O)NCC(O)CNc1nonc1/C(=N\O)N[C@H]1Cc2ccc(F)cc21` (single isomer, unassigned) [Example 56], the IC50 at IDO1 [1] turned out to be 162 nM; at IDO1 [2] it was 107 nM.

As to `CS(=O)(CCNc1nonc1/C(=N\O)N[C@H]1Cc2ccc(F)cc21)=NCCO` (single isomer, unassigned) [Example 57], the IC50 was 109 nM on IDO1 [1] and 70.6 nM on IDO1 [2].

On to `CS(=O)(CCNc1nonc1/C(=N\O)N[C@H]1Cc2ccc(F)cc21)=NCCO` (single isomer, unassigned) [Example 58], for which the IC50 on IDO1 [1] was 123 nM; on IDO1 [2], 125 nM.

On to `CS(=N)(=O)N1CCO[C@@H](CNc2nonc2/C(=N\O)N[C@H]2Cc3ccc(F)cc32)C1` (single isomer, unassigned) [Example 59], for which the figures for the half-maximal inhibitory concentration (IC50) at IDO1 [1] and at IDO1 [2] were 129 nM and 120 nM, respectively.

Turning to `CS(=N)(=O)N1CCO[C@@H](CNc2nonc2/C(=N\O)N[C@H]2Cc3ccc(F)cc32)C1` (single isomer, unassigned) [Example 60], the IC50 came to 329 nM at IDO1 [1] and 234 nM on IDO1 [2].

On to `CS(=N)(=O)N[C@H]1C[C@@H](Oc2nonc2/C(=N\O)N[C@@H]2Cc3ccc(F)cc32)C1` (single isomer, unassigned) [Example 61], for which the half-inhibitory concentration (IC50) at IDO1 [1] worked out at 128 nM; on IDO1 [2], 81.6 nM.

For the molecule `CS(=N)(=O)N[C@H]1C[C@@H](Oc2nonc2/C(=N\O)N[C@@H]2Cc3ccc(F)cc32)C1` (single isomer, unassigned) [Example 62], the IC50 on IDO1 [1] is 183 nM; on IDO1 [2] it was 147 nM.

Regarding `CS(=N)(=O)N1CCO[C@@H](CNc2nonc2/C(=N\O)N[C@@H]2Cc3ccc(F)cc32)C1` (single isomer, unassigned) [Example 64], the IC50 was determined as 200 nM on IDO1 [1] and 83 nM at IDO1 [2].

Turning to `CN=S(C)(=O)NCCNc1nonc1/C(=N\O)N[C@H]1Cc2ccc(F)cc21` (single isomer, unassigned) [Example 66], the IC50 worked out at 59.6 nM on IDO1 [1] and 80.8 nM at IDO1 [2].

`CN=S(C)(=O)NCCNc1nonc1/C(=N\O)N[C@H]1Cc2ccc(F)cc21` (single isomer, unassigned) [Example 67]: the IC50 amounted to 140 nM on IDO1 [1] and 63.7 nM at IDO1 [2].

Consider `N=S(=O)(CCNc1nonc1/C(=N\O)N[C@@H]1Cc2ccc(F)cc21)C1CC1` (single isomer, unassigned) [Example 68], for which the IC50 is 44.6 nM at IDO1 [1] and 59.1 nM on IDO1 [2].

With `N=S(=O)(CCNc1nonc1/C(=N\O)N[C@@H]1Cc2ccc(F)cc21)C1CC1` (single isomer, unassigned) [Example 69], the figures for the IC50 on IDO1 [1] and at IDO1 [2] were 48.5 nM and 64.6 nM, respectively.

Turning to `CS(=N)(=O)N1CC(CNc2nonc2/C(=N\O)N[C@@H]2Cc3ccc(F)cc32)C1` (single isomer, unassigned) [Example 70], the IC50 at IDO1 [1] was determined as 41.6 nM; at IDO1 [2], 79.7 nM.

Regarding `CS(=N)(=O)N1CC(CNc2nonc2/C(=N\O)N[C@@H]2Cc3ccc(F)cc32)C1` (single isomer, unassigned) [Example 71], the values for the IC50 at IDO1 [1] and at IDO1 [2] were 72.3 nM and 80 nM, respectively.

Consider `C[S@](=N)(=O)C1CC(Nc2nonc2/C(=N\O)N[C@@H]2Cc3ccc(F)cc32)C1` (single isomer, unassigned) [Example 72], for which the values for the IC50 at IDO1 [1] and on IDO1 [2] were 63.5 nM and 49.5 nM, respectively.

Regarding `C[S@](=N)(=O)C1CC(Nc2nonc2/C(=N\O)N[C@@H]2Cc3ccc(F)cc32)C1` (single isomer, unassigned) [Example 73], the IC50 is 85.4 nM on IDO1 [1] and 63.9 nM at IDO1 [2].

Take `CS(=N)(=O)C1CC2(CC(Nc3nonc3/C(=N\O)N[C@@H]3Cc4ccc(F)cc43)C2)C1` (single isomer, unassigned) [Example 74]: the figures for the IC50 on IDO1 [1] and on IDO1 [2] were 32.2 nM and 73.7 nM, respectively.

With `CS(=N)(=O)C1CC2(CC(Nc3nonc3/C(=N\O)N[C@@H]3Cc4ccc(F)cc43)C2)C1` (single isomer, unassigned) [Example 75], the IC50 turned out to be 40.3 nM at IDO1 [1] and 90.4 nM on IDO1 [2].

As to `CS(=N)(=O)N1CC2(CC(Nc3nonc3/C(=N\O)N[C@@H]3Cc4ccc(F)cc43)C2)C1` (single isomer, unassigned) [Example 76], the IC50 at IDO1 [1] is 17.6 nM; at IDO1 [2], 39.9 nM.

Turning to `CS(=N)(=O)N1CC2(CC(Nc3nonc3/C(=N\O)N[C@@H]3Cc4ccc(F)cc43)C2)C1` (single isomer, unassigned) [Example 77], the IC50 amounted to 22.7 nM at IDO1 [1] and 34.1 nM on IDO1 [2].

Regarding `CS(=N)(=O)CCC(O)CNc1nonc1/C(=N\O)N[C@@H]1Cc2ccc(F)cc21` (single isomer, unassigned) [Example 78], the IC50 on IDO1 [1] was found to be 74.8 nM; on IDO1 [2], 57.8 nM.

Turning to `CS(=N)(=O)CCC(O)CNc1nonc1/C(=N\O)N[C@@H]1Cc2ccc(F)cc21` (single isomer, unassigned) [Example 79], the IC50 was 91 nM at IDO1 [1] and 77.6 nM on IDO1 [2].

In the case of `CS(=N)(=O)CCC(O)CNc1nonc1/C(=N\O)N[C@@H]1Cc2ccc(F)cc21` (single isomer, unassigned) [Example 80], the IC50 at IDO1 [1] stood at 68.5 nM; on IDO1 [2], 94.5 nM.

With `CS(=N)(=O)CCC(O)CNc1nonc1/C(=N\O)N[C@@H]1Cc2ccc(F)cc21` (single isomer, unassigned) [Example 81], the 50% inhibitory concentration (IC50) at IDO1 [1] amounted to 62.8 nM; at IDO1 [2], 95 nM.

As for `CS(=N)(=O)CC12CC(Nc3nonc3/C(=N\O)N[C@@H]3Cc4ccc(F)cc43)(C1)C2` (single isomer, unassigned) [Example 82], the figures for the IC50 at IDO1 [1] and on IDO1 [2] were 82 nM and 91.7 nM, respectively.

Regarding `CS(=N)(=O)CC12CC(Nc3nonc3/C(=N\O)N[C@@H]3Cc4ccc(F)cc43)(C1)C2` (single isomer, unassigned) [Example 83], the IC50 on IDO1 [1] worked out at 83.9 nM; on IDO1 [2] it was 81.5 nM.

Turning to `CC(O)CS(=N)(=O)CCNc1nonc1/C(=N\O)N[C@@H]1Cc2ccc(F)cc21` (single isomer, unassigned) [Example 84], the figures for the IC50 at IDO1 [1] and on IDO1 [2] were 55.2 nM and 56.8 nM, respectively.

Consider `CC(O)CS(=N)(=O)CCNc1nonc1/C(=N\O)N[C@@H]1Cc2ccc(F)cc21` (single isomer, unassigned) [Example 85], for which the IC50 at IDO1 [1] was 49.7 nM; at IDO1 [2], 49.5 nM.

Consider `CC(O)CS(=N)(=O)CCNc1nonc1/C(=N\O)N[C@@H]1Cc2ccc(F)cc21` (single isomer, unassigned) [Example 86], for which the IC50 at IDO1 [1] amounted to 40.5 nM; on IDO1 [2], 47.4 nM.

In the case of `CC(O)CS(=N)(=O)CCNc1nonc1/C(=N\O)N[C@@H]1Cc2ccc(F)cc21` (single isomer, unassigned) [Example 87], the IC50 amounted to 51.9 nM on IDO1 [1] and 46.1 nM at IDO1 [2].

On to `CON=[S@](C)(=O)CCNc1nonc1/C(=N/O)NC1Cc2ccc(F)cc21` (single isomer, unassigned) [Example 90], for which the IC50 at IDO1 [1] amounted to 53.5 nM; on IDO1 [2] it was 44.9 nM.

Turning to `CON=[S@](C)(=O)CCNc1nonc1/C(=N/O)NC1Cc2ccc(F)cc21` (single isomer, unassigned) [Example 91], the IC50 at IDO1 [1] was 41.8 nM; at IDO1 [2], 47.2 nM.

`N=S(N)(=O)CCCNc1nonc1/C(=N\O)NC1Cc2ccc(F)cc21` (stereo in doubt) [Example 65, 4-{[3-(S-aminosulfonimidoyl)propyl]amino}-N-[(7S)-4-fluorobicyclo[4.2.0]octa-1,3,5-trien-7-yl]-N′-hydroxy-1,2,5-oxadiazole-3-carboximidamide]: the IC50 at IDO1 [1] came out at 25.7 nM; on IDO1 [2], 48.2 nM.

The term IC50 denotes the concentration needed to halve the response being measured.

Values taken from patent publication US10927086B2, “Substituted sulfoximine compounds as indoleamine 2,3-dioxygenase (IDO) inhibitors” (Merck Sharp & Dohme Corp., priority 2017, dated 2021).
